For test [1], the system named is C. albicans. Description: Determination of minimum fungicidal concentrations (MFC). It is filed as cell-based. Conditions: concentration where no cellular growth is observed on the plate after plating out MIC wells; for MFC: Candida albicans, read-out: C. alb MFC. How it is done:
(iii) Determination of Minimum Fungicidal Concentrations (MFC) After the required time course for the MIC determination, the minimum fungicidal concentration can then be determined by plating out the entire contents of the well of the microtitre plates onto YPD or Sabourand plates. These plates are then incubated at 35° C. for 24-48 hrs. The MFC corresponds to the concentration of compound where no cellular growth is observed on the plate.

For test [2], the target named is C. albicans GGPTase (Candida albicans, UniProt Q8J224+Q9Y764). Description: Assay protocol for determining IC50 of fungal GGPTase inhibitors (3H-GGPP, FlashPlate). Conditions: 2 nM C. albicans GGPTase, 250 nM 3H-GGPP, 250 nM C. albicans Rho; read-out: CaGGTase. It is filed as biochemical. On the procedure:
(i) Assay Protocol for Determining IC50
Plate test compounds (10 μL per well) at predetermined concentration in 50% DMSO. For background control (blank) and reaction control (negative), add 10 μL of 200 μM GGPP and 10 μL 50% DMSO, respectively. Prepare assay buffer: 50 mM Tris, pH7.5, 20 mM KCL, 5 mM MgCl2, 5 μM ZnCl2, 0.5 mM Zw(3-14), 2 mM DTT and 0.1 mg/mL BSA.
Add 20 μL of C. albicans GGPTase and ^3H-GGPP in assay buffer to test compound. Preincubate enzyme and ^3H-GGPP with test compound for 15 minutes at room temperature. Add 20 μL C. albicans Rho in assay buffer. Incubate for 30 minutes at room temperature. Final assay conditions are 2 nM C. albicans GGPTase, 250 nM ^3H-GGPP and 250 nM C. albicans Rho.
Add 100 μL 15 mM GGPP, 50 mM Tris, pH 7.0 and 2% BSA to quench reaction. Transfer reaction to Nickel chelate FlashPlate. Allow his-tagged C. albcians Rho to capture onto plate. Rinse plate 1× with 200 μL 20 mM Tris, pH 7.0. Read in TOPCOUNT.

For test [3], the system named is C. albicans. Description: In vitro susceptibility testing of compounds in C. albicans (MIC). It is filed as cell-based. Particulars: concentration where no visible growth is observed, 35° C., read at 24 hr and 48 hr; for MIC: Candida albicans, read-out: C. alb MIC. How it is done: (ii) In vitro Susceptibility Testing of Compounds in C. albicans […] Innoculate strain C. albicans strain such as SC5314 into 20 mL of the appropriate medium and incubate at 35° C. with shaking (220 rpm) overnight 2: Count the C. albicans cells in a 1:10 dilution of the overnight culture using a haemocytometer. 3: Work out the dilution factor required to bring the cell number to 1×10^3 cells/100 μL (equivalent to 1×10^4 cells/mL) then add the required volume of the overnight culture to 25 mL media in a falcon tube. 4: Vortex the diluted cells and immediately pipette 100 μL of the cell suspension to each of the required rows of a 96 well plate using the multipipettor 5: Prepare each of the 100× stock solutions for the compounds to be tested in DMSO in the required concentration range in Eppendorf tubes. 6: The dilution series for each of the compounds may now be prepared in sequence: For each compound—start with highest dilution. Add 10 μL compound in DMSO to the 490 μL of appropriate media. Immediately vortex and add 100 μL to the appropriate row of cells on the 96-well plate. Repeat this process for the next and subsequent concentrations of this compound before starting on the dilution series for additional compounds. 7: When complete cover the 96-well plate with an acetate sheet and incubate at 35° C. Inspect visually and record results for both plates at 24 hr and 48 hr. The MIC corresponds to the concentration of compound where no visible growth is observed.

For test [4], the target named is CAK1 (Candida albicans, UniProt A0A1D8PH53). Description: CAK1 inhibition, time-resolved fluorescence (FRET) kinase assay with biotin-his-cdk2 substrate. Particulars: 10 nM his-CAK1, 20 μM ATP, 30 min room temperature. In kind it is biochemical. How it is done: The following protocol was used for measuring CAK1 inhibition by test compounds:
A compound plate was pre-made with 20 μg/ml compound dissolved in 100% DMSO in each well of a 384-well plate (polypropylene, Coming cat # 29445-136), except for two control columns, wherein each well contained 100% DMSO.
A substrate plate was prepared by adding a pre-determined volume of substrate solution (925 nM biotin-his-cdk2 in reaction buffer) into each well of a 96-well deep-well plate (Beckman cat. 267006). To the control wells of the plate, 1/20 vol. of positive control and blank solutions were added according to the plate map. Positive control solutions are Olomoucine (MTX-277859) at 0.25, 0.75, 2.25, 6.75 mM, respectively, in DMSO, and blank solution is 50 mM EDTA in reaction buffer (50 mM Tris-HCl (pH 7.5), 50 mM NaCl, 0.1 mg/mL BSA, 100 μM MgCl2).
The reaction plate (384-well polystyrene black, Packard Opti plate, Cat.# 6005256) was loaded with a volume of 2.0 μL of samples from the compound plate and 8.0 μL of substrate solution from the substrate plate. 10 μl of enzyme solution (10 nM his-CAK1, 20 μM ATP in reaction buffer) was added to start the reaction. The plate was covered with a lid and incubated at room temperature for 30 min.
10 μl of FRET solution (45 nM streptavidin-APC*, 30 nM Europium-Ab, 3 mM EDTA in reaction buffer) was added to each of the wells of the reaction plate to stop the reaction. The time-resolved fluorescence was measured on a Wallac Victor fluorometer (excitation 340 nm, emission 665 nm, delay time 100 μs, window time 100 μs).

For test [5], the target named is T1, fungal N-myristoyltransferase (Candida albicans, UniProt P30418).
T1 sequence (P30418 1-451): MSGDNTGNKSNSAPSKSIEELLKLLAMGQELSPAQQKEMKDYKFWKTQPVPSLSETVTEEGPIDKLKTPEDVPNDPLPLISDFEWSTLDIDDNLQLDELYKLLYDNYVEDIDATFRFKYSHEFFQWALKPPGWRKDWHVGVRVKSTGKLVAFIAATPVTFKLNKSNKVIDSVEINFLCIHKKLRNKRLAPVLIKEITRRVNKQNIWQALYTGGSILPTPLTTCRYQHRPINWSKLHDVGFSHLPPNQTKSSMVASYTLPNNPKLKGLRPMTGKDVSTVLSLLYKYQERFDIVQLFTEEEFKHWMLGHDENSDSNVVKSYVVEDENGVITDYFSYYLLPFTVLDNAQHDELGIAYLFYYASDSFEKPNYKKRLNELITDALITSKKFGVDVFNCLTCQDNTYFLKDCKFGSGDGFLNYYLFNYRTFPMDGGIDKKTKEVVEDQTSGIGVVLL
Conditions: cited from earlier work.

CAK1, sequence (A0A1D8PH53 entry or part of it): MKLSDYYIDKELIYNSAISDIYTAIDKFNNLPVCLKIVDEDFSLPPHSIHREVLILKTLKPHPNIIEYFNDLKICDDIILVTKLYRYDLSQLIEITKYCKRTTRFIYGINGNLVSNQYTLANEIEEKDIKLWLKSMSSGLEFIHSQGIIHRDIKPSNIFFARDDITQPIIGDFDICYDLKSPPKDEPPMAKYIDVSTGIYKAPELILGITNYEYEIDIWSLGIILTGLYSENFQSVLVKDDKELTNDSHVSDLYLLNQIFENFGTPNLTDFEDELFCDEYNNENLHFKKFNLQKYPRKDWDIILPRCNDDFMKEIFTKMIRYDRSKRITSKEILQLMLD
C. albicans GGPTase, sequence (Q9Y764 entry or part of it): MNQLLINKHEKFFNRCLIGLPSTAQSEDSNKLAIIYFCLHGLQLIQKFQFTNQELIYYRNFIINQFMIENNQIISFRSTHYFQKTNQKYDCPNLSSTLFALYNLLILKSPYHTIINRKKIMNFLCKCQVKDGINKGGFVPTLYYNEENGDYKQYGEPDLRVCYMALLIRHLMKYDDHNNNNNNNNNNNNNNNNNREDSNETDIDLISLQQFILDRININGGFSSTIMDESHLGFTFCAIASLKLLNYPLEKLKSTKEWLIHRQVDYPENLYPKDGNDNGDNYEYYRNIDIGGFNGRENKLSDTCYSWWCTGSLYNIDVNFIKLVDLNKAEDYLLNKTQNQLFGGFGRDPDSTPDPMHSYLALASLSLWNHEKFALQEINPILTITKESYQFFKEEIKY
C. albicans GGPTase, sequence (Q8J224 entry or part of it): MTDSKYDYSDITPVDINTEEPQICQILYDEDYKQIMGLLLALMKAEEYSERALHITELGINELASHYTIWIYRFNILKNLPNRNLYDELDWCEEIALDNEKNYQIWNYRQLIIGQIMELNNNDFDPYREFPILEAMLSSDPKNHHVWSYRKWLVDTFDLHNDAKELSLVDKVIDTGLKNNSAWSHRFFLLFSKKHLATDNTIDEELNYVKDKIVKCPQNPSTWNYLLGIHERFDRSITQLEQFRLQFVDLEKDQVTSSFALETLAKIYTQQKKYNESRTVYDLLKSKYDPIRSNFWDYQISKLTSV

The term MFC denotes the smallest concentration meeting the test's criterion for killing the fungus. For orientation: MIC means the lowest concentration found to suppress growth. Regarding `C[C@H](NC(=O)C1CN(C(=O)N(Cc2cccc(Cl)c2)Cc2cccc(Cl)c2)CCN1Cc1cncn1C)[C@](O)(Cn1cncn1)c1ccc(F)cc1F` (stereo partly shown) [Compound 2], the MFC in test [1] is below 10 µg/mL. The IC50 in test [2] was below 100 nM. In test [3], the MIC was below 10 µg/mL.
Turning to `Cn1cncc1CN1CCN(C(=O)N(Cc2cccc(Cl)c2)Cc2cccc(Cl)c2)C[C@@H]1C(=O)NC[C@@H]1CO[C@@](Cn2ccnc2)(c2ccc(Cl)cc2Cl)O1` [Compound 13], in test [1], the MFC was below 10 µg/mL. Also, the IC50 in test [2] is below 100 nM. In test [3], the MIC was below 10 µg/mL.
For the molecule `Cn1cncc1CN1CCN(C(=O)N(Cc2cccc(Cl)c2)Cc2cccc(Cl)c2)CC1C(=O)NC[C@H]1CO[C@](Cn2ccnc2)(c2ccc(Cl)cc2Cl)O1` (stereo partly shown) [Compound 1], in test [1], the MFC was below 10 µg/mL. In test [2], the IC50 is below 100 nM. For the same molecule, the MIC in test [3] was below 10 µg/mL.
`O=C1CCc2cc(C(=O)CSc3ccc(Cl)cc3Cl)ccc2N1` [Compound 105] returned an IC50 in test [4] below 50000 nM.
Still for that read-out and setting: the value for `CCOC(=O)C1=C(C)N(Cc2ccccc2)C(=O)NC1c1ccc(OC(F)(F)F)cc1` (stereo not shown) [Compound 106] was below 50000 nM.
Take `CN(C)C(=O)c1ccc2nc(NC(=O)[C@H]3CC[C@@H](CN)CC3)sc2c1`: the “inhibitor of fungal N-myristoyltransferase” value in test [5] is “potent inhibitor”.
Regarding `CCOC(=O)c1c(NC(=O)c2c(OC)cccc2OC)sc(C)c1C` [Compound 103], the IC50 in test [4] was below 50000 nM.
Take `Cn1cncc1CN(C[C@@H]1CO[C@@](Cn2ccnc2)(c2ccc(Cl)cc2Cl)O1)C1CCN(C(=O)N(Cc2cccc(Cl)c2)Cc2cccc(Cl)c2)CC1` [Compound 5]: the MFC in test [1] was below 10 µg/mL. In test [2], the IC50 was below 100 nM. Besides, in test [3], the MIC was below 10 µg/mL.
On to `Cn1cncc1CN1CCN(C(=O)N(Cc2cccc(Cl)c2)Cc2cccc(Cl)c2)C[C@@H]1CNC1CO[C@@](Cn2cncn2)(c2ccc(Cl)cc2Cl)O1` (stereo partly shown) [Compound 8], for which, in test [1], the minimal fungicidal concentration (MFC) was below 10 µg/mL. Further, in test [2], the IC50 was below 100 nM. For the same molecule, in test [3], the MIC is below 10 µg/mL.
As to `C[C@@H](c1nc(CN(Cc2cncn2C)[C@H]2CCN(C(=O)N(Cc3cccc(Cl)c3)Cc3cccc(Cl)c3)C2)cs1)[C@@](O)(c1ccc(F)cc1F)n1cncn1` [Compound 16], in test [1], the minimum fungicidal concentration (MFC) is below 10 µg/mL. Besides, in test [2], the IC50 is below 100 nM. In addition, in test [3], the MIC is below 10 µg/mL.
In turn, `O=C(c1cc(C(O)(Cn2ccnc2)c2ccccc2)ccc1-c1ccccc1)N(Cc1ccccc1)Cc1ccccc1` (stereo not shown) [Compound 108] displayed an IC50 in test [4] below 50000 nM.
On to `O=C(CSc1ccccn1)c1ccc(OCc2ccc([N+](=O)O)cc2)cc1` [Compound 102], for which the IC50 in test [4] is below 10000 nM.
As to `Cc1onc(-c2c(Cl)cccc2Cl)c1C(=O)Nc1cccc(-c2ncon2)c1` [Compound 101], the IC50 in test [4] is below 50000 nM.
Regarding `Cn1cncc1CN1CCN(C(=O)N(Cc2cccc(Cl)c2)Cc2cccc(Cl)c2)C[C@@H]1C(=O)NC[C@H]1CO[C@](Cn2ccnc2)(c2ccc(Cl)cc2Cl)O1` [Compound 12], the “C. alb MFC” value in test [1] was below 10 µg/mL. Also, in test [3], the “C. alb MIC” value was below 10 µg/mL.
On to `Cn1cncc1CN(CC(=O)NC[C@@H]1CO[C@@](Cn2ccnc2)(c2ccc(Cl)cc2Cl)O1)C1CCN(C(=O)N(Cc2cccc(Cl)c2)Cc2cccc(Cl)c2)CC1` [Compound 4], for which the MFC in test [1] was below 10 µg/mL. For the same molecule, the IC50 in test [2] is below 100 nM. Besides, the MIC in test [3] was below 10 µg/mL.
Consider `O=C(c1ccccc1OCC1COC(Cn2ccnc2)(c2ccc(Cl)cc2Cl)O1)N(Cc1ccccc1)Cc1ccccc1` (stereo not shown) [Compound 107], for which the IC50 in test [4] is below 10000 nM.
Turning to `Cn1cncc1CN1CCN(C(=O)N(Cc2cccc(Cl)c2)Cc2cccc(Cl)c2)C[C@H]1C(=O)NC[C@@H]1CO[C@@](Cn2ccnc2)(c2ccc(Cl)cc2Cl)O1` [Compound 14], the MFC in test [1] was below 10 µg/mL. The IC50 in test [2] is below 100 nM. Further, the MIC in test [3] is below 10 µg/mL.
As for `C[C@@H](c1nc([C@H]2CN(C(=O)N(Cc3cccc(Cl)c3)Cc3cccc(Cl)c3)CCN2Cc2cncn2C)cs1)[C@@](O)(c1ccc(F)cc1F)n1cncn1` [Compound 15], the MFC in test [1] is below 10 µg/mL. Further, in test [2], the IC50 is below 100 nM. Further, the MIC in test [3] was below 10 µg/mL.
As to `Cn1cncc1CN1CCN(C(=O)N(Cc2cccc(Cl)c2)Cc2cccc(Cl)c2)C[C@@H]1C(=O)NC[C@H]1CO[C@](Cn2ccnc2)(c2ccc(Cl)cc2Cl)O1` [Compound 11], the MFC in test [1] was below 10 µg/mL. The IC50 in test [2] was below 100 nM. Also, the MIC in test [3] is below 10 µg/mL.
`Cn1cncc1CN1CCN(C(=O)N(Cc2cccc(Cl)c2)Cc2cccc(Cl)c2)C[C@@H]1CNC1CO[C@@](Cn2cncn2)(c2ccc(Cl)cc2Cl)O1` (stereo partly shown) [Compound 9]: the “C. alb MFC” value in test [1] is below 10 µg/mL. The “C. alb MIC” value in test [3] was below 10 µg/mL.
The molecule `CCOC(=O)c1c(NC(=O)c2c(OC)cccc2OC)sc2c1CCC(C)C2` (stereo not shown) [Compound 104] displayed an IC50 in test [4] above 50000 nM.
Take `Cn1cncc1CN1CCN(C(=O)N(Cc2cccc(Cl)c2)Cc2cccc(Cl)c2)C[C@@H]1C(=O)NC[C@@H]1CO[C@@](Cn2cncn2)(c2ccc(Cl)cc2Cl)O1` [Compound 10]: the MFC in test [1] is below 10 µg/mL. In addition, in test [2], the IC50 was below 100 nM. For the same molecule, the MIC in test [3] was below 10 µg/mL.

Values taken from US20040235798A1, “Compositions and methods for inhibiting prenyltransferases” (priority 2001, published 2004).
